Key:
Jily = assay: Hoechst 33342 nuclear staining, Jily; assay type: cell-based; conditions: 48 h
Procedure: (§1) This assay is performed in 96 well tissue culture plates. Appropriate number of cells (adherent cells: 3-5*10^3, suspension cells: 8-10*10^3) are being seeded out in 80 μl complete medium. Adherent cells are incubated for 24 h for proper spreading out before addition of test compounds while suspension cells are immediately treated with test compounds after seeding out. The test compounds are added in 20 μl complete medium containing max 5% DMSO. The final compound concentrations in the assays are 10 μM, 3 μM, 1 μM and 0.3 μM, respectively. […] The assay plates are then further incubated for 30 minutes and subsequently analyzed with a standard inverted fluorescence microscope.
(§2) The readout allows the determination of the fraction of apoptotic nuclei as well as other morphological criteria specific for apoptosis as a function of the treatment. The following scores are used: 0 relating to no activity, 1 relating to weak activity comprising less than 50% of the cells and score 2 relating to strong activity comprising more than 50% of the cells.

H460 = assay: Hoechst 33342 nuclear staining, H460; assay type: cell-based, human; conditions: H460, 48 h
Procedure: as §1, §2

Jurkat [1] = assay: Hoechst 33342 nuclear staining, Jurkat; assay type: cell-based, human; conditions: 48 h
Procedure: as §1, §2

HeLa [2] = assay: Hoechst 33342 nuclear staining, HeLa; assay type: cell-based, human; conditions: 48 h
Procedure: as §1, §2

HeLa [3] = assay: MTS proliferation assay, HeLa; assay type: cell-based, human; conditions: 72 h incubation
Procedure: (§3) The assay is performed in 96 well tissue culture plates. The cells (range: 1.5*10^3-10^4) are seeded out in 80 μl complete medium 24 h prior to compound treatment. The test compounds are added in 20 μl complete medium containing max 5% DMSO. The final compound concentrations in the assays are 10 μM, 3 μM, 1 μM and 0.3 μM, respectively. The assay plates are incubated for 72 h at culture conditions. The MTS reagent is prepared according to the manufacturer's protocol (Promega G1111). 20 μl MTS reagent are added to each well, the assay plates are quickly spun and incubated for another 3 h at culture conditions. Subsequently, the plates are shortly shaked and absorption measured with a microplate-reader at 492 nm.

PBLs = assay: Hoechst 33342 nuclear staining, PBLs; assay type: cell-based; parameters: key: 0 = no activity, 1 = weak (<50% of cells), 2 = strong (>50% of cells); conditions: 48 h
Procedure: as §1, §2

Jurkat [4] = assay: MTS proliferation assay, Jurkat; assay type: cell-based, human; conditions: 72 h incubation
Procedure: as §3

MRC5 = assay: Hoechst 33342 nuclear staining, MRC5; assay type: cell-based; parameters: key: 0 = no activity, 1 = weak (<50% of cells), 2 = strong (>50% of cells); conditions: MRC5, 48 h
Procedure: as §1, §2

| SMILES | Hoechst 33342 nuclear staining score (Jily; conc. 0.3 (μM)) | Hoechst 33342 nuclear staining score (Jily; conc. 1 (μM)) | Hoechst 33342 nuclear staining score (Jily; conc. 3 (μM)) | Hoechst 33342 nuclear staining score (Jily; conc. 10 (μM)) | Hoechst 33342 nuclear staining score (H460; conc. 0.3 (μM)) | Hoechst 33342 nuclear staining score (H460; conc. 1 (μM)) | Hoechst 33342 nuclear staining score (H460; conc. 3 (μM)) | Hoechst 33342 nuclear staining score (H460; conc. 10 (μM)) | Hoechst 33342 nuclear staining score (Jurkat [1]; conc. 0.3 (μM)) | Hoechst 33342 nuclear staining score (Jurkat [1]; conc. 1 (μM)) | Hoechst 33342 nuclear staining score (Jurkat [1]; conc. 3 (μM)) | Hoechst 33342 nuclear staining score (Jurkat [1]; conc. 10 (μM)) | Hoechst 33342 nuclear staining score (HeLa [2]; conc. 0.3 (μM)) | Hoechst 33342 nuclear staining score (HeLa [2]; conc. 1 (μM)) | Hoechst 33342 nuclear staining score (HeLa [2]; conc. 3 (μM)) | Hoechst 33342 nuclear staining score (HeLa [2]; conc. 10 (μM)) | Hoechst 33342 nuclear staining score (PBLs; conc. 0.3 (μM)) | Hoechst 33342 nuclear staining score (PBLs; conc. 1 (μM)) | Hoechst 33342 nuclear staining score (PBLs; conc. 3 (μM)) | Hoechst 33342 nuclear staining score (PBLs; conc. 10 (μM)) | further results |
| --- | --- | --- | --- | --- | --- | --- | --- | --- | --- | --- | --- | --- | --- | --- | --- | --- | --- | --- | --- | --- | --- |
| Nc1ccc(C(=O)Cn2c(-n3ncnc3N)nc3ccccc32)cn1 [Example 14] | 2 (score 2 relating to strong activity comprising more than 50% of the cells) | 2 (score 2 relating to strong activity comprising more than 50% of the cells) | 2 (score 2 relating to strong activity comprising more than 50% of the cells) | 2 (score 2 relating to strong activity comprising more than 50% of the cells) | 2 (score 2 relating to strong activity comprising more than 50% of the cells) | 2 (score 2 relating to strong activity comprising more than 50% of the cells) | 2 (score 2 relating to strong activity comprising more than 50% of the cells) | 2 (score 2 relating to strong activity comprising more than 50% of the cells) | 2 (score 2 relating to strong activity comprising more than 50% of the cells) | 2 (score 2 relating to strong activity comprising more than 50% of the cells) | 2 (score 2 relating to strong activity comprising more than 50% of the cells) | 2 (score 2 relating to strong activity comprising more than 50% of the cells) | 2 (score 2 relating to strong activity comprising more than 50% of the cells) | 2 (score 2 relating to strong activity comprising more than 50% of the cells) | 2 (score 2 relating to strong activity comprising more than 50% of the cells) | 2 (score 2 relating to strong activity comprising more than 50% of the cells) | 0 | 0 | 0 | 0 | IC50 (HeLa [3]): 0.1 to 1 µM; IC50 (Jurkat [4]): < 0.1 µM; Hoechst 33342 nuclear staining score (MRC5; conc. 0.3 (μM)): 1 (1 relating to weak activity comprising less than 50% of the cells); Hoechst 33342 nuclear staining score (MRC5; conc. 1 (μM)): 1 (1 relating to weak activity comprising less than 50% of the cells); Hoechst 33342 nuclear staining score (MRC5; conc. 3 (μM)): 1 (1 relating to weak activity comprising less than 50% of the cells); Hoechst 33342 nuclear staining score (MRC5; conc. 10 (μM)): 1 (1 relating to weak activity comprising less than 50% of the cells) |
| Cc1ccc(C(=O)Cn2c(-n3ncnc3N)nc3ccccc32)cc1C [Example 1, 3-Amino-2-(1-[3,4-dimethylphenylcarbonylmethyl]benzimidazol-2-yl)-1,2,4-triazole] | 2 (score 2 relating to strong activity comprising more than 50% of the cells) | 2 (score 2 relating to strong activity comprising more than 50% of the cells) | 2 (score 2 relating to strong activity comprising more than 50% of the cells) | 2 (score 2 relating to strong activity comprising more than 50% of the cells) | 2 (score 2 relating to strong activity comprising more than 50% of the cells) | 2 (score 2 relating to strong activity comprising more than 50% of the cells) | 2 (score 2 relating to strong activity comprising more than 50% of the cells) | 2 (score 2 relating to strong activity comprising more than 50% of the cells) | 2 (score 2 relating to strong activity comprising more than 50% of the cells) | 2 (score 2 relating to strong activity comprising more than 50% of the cells) | 2 (score 2 relating to strong activity comprising more than 50% of the cells) | 2 (score 2 relating to strong activity comprising more than 50% of the cells) | 2 (score 2 relating to strong activity comprising more than 50% of the cells) | 2 (score 2 relating to strong activity comprising more than 50% of the cells) | 2 (score 2 relating to strong activity comprising more than 50% of the cells) | 2 (score 2 relating to strong activity comprising more than 50% of the cells) | 0 | 0 | 0 | 0 | IC50 (HeLa [3]; Homo sapiens): < 0.1 µM; IC50 (Jurkat [4]; Homo sapiens): < 0.1 µM; Hoechst 33342 nuclear staining score (MRC5; conc. 0.3 (μM)): 1 (1 relating to weak activity comprising less than 50% of the cells); Hoechst 33342 nuclear staining score (MRC5; conc. 1 (μM)): 2 (score 2 relating to strong activity comprising more than 50% of the cells); Hoechst 33342 nuclear staining score (MRC5; conc. 3 (μM)): 2 (score 2 relating to strong activity comprising more than 50% of the cells); Hoechst 33342 nuclear staining score (MRC5; conc. 10 (μM)): 2 (score 2 relating to strong activity comprising more than 50% of the cells) |
